Assay results from publication PMC5766510, “Development of a PET radioligand for potassium channels to image CNS demyelination” (Scientific Reports, 2018).
Read-outs that look alike come from different tables or passages of the source.

Tests used:
[1] = test system: voltage-gated K^+ channels in demyelinated axons; assay type: in vivo
Description: Thirty minutes post-injection of the radiolabeled drug, the mice were euthanized and their brains dissected without perfusion to prevent washout of the drug. After dissection, the brains were frozen, cut into thin sections and collected on glass slides. The brain slices were then apposed to autoradiography film to reveal the distribution of the drug in the brain at the time of death. After autoradiography, the same brain sections were stained with the myelin-specific dye Luxol fast blue (LFB).
Number of animals per group was determined using statistical power analysis (α = 0.05, power = 0.80). […] The brains were embedded in Optimal Cutting Temperature (Tissue-Tek), frozen in dry ice and stored at −80 °C. Frozen brains were sliced in a cryostat at 20 μm thickness, the sections mounted on Superfrost Plus slides (Fisher) and allowed to dry at room temperature for at least 30 min. Next, the slides were placed in a cassette in front of autoradiography film (Denville scientific) sealed in the dark at −80 °C for 14–21 days. After that time the cassette was allowed to warm up to room temperature and the films developed inside a dark room using a film processor (Konica). The films were then scanned using an EPSON Perfection V750 scanner (Positive film mode, 8-bit grayscale, 1,200 dpi). After digitizing the radiographs, the same slides were stained using Luxol fast blue (LFB) and cresyl violet. For [^18F]3-F-4-AP autoradiography in rats we injected 1–2 μCi per g. After euthanasia, the brains were dissected without perfusion, frozen in dry ice and sliced in a cryostat at −20 °C.
1 min) and left in LFB solution (0.1 g LFB, 100 mL of 95% EtOH, 0.5 mL glacial acetic acid) overnight at 56 °C. Next morning, the slides were rinsed in 95% EtOH and ddH2O to remove the excess of dye, differentiated in lithium carbonate solution (0.05 g in 100 mL) for 30 s, 70% EtOH for 30 s and rinsed in ddH2O. The differentiation steps were repeated until the gray matter was clear and the white matter appeared blue and sharply defined. Afterwards, the slides were counterstained in cresyl violet (0.1 g in 100 mL of ddH2O, 0.1 mL acetic acid) for 30 s. The slides were differentiated in 95 % EtOH for 5 min and dehydrated (100% EtOH, 2x 5 min ea; 100 % xylene, 2 x, 5 min ea) before mounting with permount (Electron Microscopy Sciences). After staining, images of the slides were collected using the CRi Pannoramic Whole Slide Scanner (Perkin Elmer) equipped with a 20x objective.
Image analysis: The histology images were superimposed on the autoradiography images using Photoshop. The histology images were used to precisely outline the corpus callosum, the cortex and a ~1.5 mm-wide area around the brain (background). The autoradiographic signal from each area was quantified. The background signal was subtracted from the all the areas and defined as zero. The signal intensity of the cortex was set as 1.0 and the signal intensity of the corpus callosum was measured relative to the cortex. Color images were created using the 6-shades look up table (LUT) in ImageJ. […]

[2] = molecular target: non-inactivating Shaker channel from D. melanogaster (Drosophila melanogaster, UniProt P08510, DEL6-46); test: cell-based
Experimental: See SI for additional details.
(§1) CI95 = [Upper Limit. Lower Limit]; where Upper Limit = 10^(logEC50+s.d.) and Lower Limit = 10^(logEC50−s.d.). […]
exchanging the external solution (top and guard chambers) several times. After application, cells were voltage-clamped at least 5 min at 0mV, then voltage-clamped at -80mV for 1-2 min.
K+ currents were generated by applying series of 50 ms pulses from -70 mV to +40 mV in increments of 10 mV. The effect of the drug was assessed by measuring the relative intensity of the K+ current before and after applying varying drug concentration at a constant voltage (typically +20 mV) and at the end of the test-pulse. Data acquisition and analysis of the traces was performed using Gpatch software (Department of Anesthesiology, University of California, […]
Los Angeles). […]

C57Bl/6 J mice = test: In vivo effects (signs of neuroexcitation) after intraperitoneal injection; settings: mouse, different doses
Experimental: In this experiment, we injected each drug intraperitoneally at different concentrations into mice and looked for signs of neuroexcitation (Fig. 3B).
10-week-old female C57Bl/6 J mice were given an intraperitoneal injection of the drug under investigation and monitored continuously for 4 h. […] At least 72 h passed between injections to the same mice.

[3] = test system: K^+ channels in explanted mouse optic nerves; test: Compound action potential (CAP) of dissected mouse optic nerves; settings: for activity in enhancing the CAP / IC50: dysmyelinated (Shiverer) optic nerves; for IC50: CAP enhancement, given as IC50; for times less potent: from EC50 values, versus 4-AP and 3-F-4-AP
Experimental: Therefore, we tested the effects of these compounds on the compound action potential (CAP) of dysmyelinated optic nerves from control and Shiverer mice (Fig. 2E).
Optic nerves were dissected from 12–16 week old Shiverer (Mbp^shi/shi) and control mice (Mbp^+/shi and Mbp^+/+). Compound action potentials (CAP) were recorded using suction electrodes as described by Stys et al.[91]. See SI for additional details.
as §1
Dissection of optic nerves: Optic nerves were dissected from 12-16 week old Shiverer (Mbpshi/shi) and control mice (Mbp+/shi and Mbp+/+). Mice were euthanized by CO2 overdose and the optic nerves were quickly dissected between the eyeball and the optic chiasm. The nerves […]
Optic nerve electrophysiology: Compound action potentials (CAP) from dysmyelinated nerves (Shiverer mice, Mbpshi/shi) and myelinated nerves (litermate controls, Mbp+/shi and Mbp+/+) were […]
between two suction electrodes (stimulus and recording electrodes) forming a tight seal on each end. Two additional electrodes were placed in the bath for reference. A supramaximal pulse (250 mV, 20 μs) was applied at the stimulating end of the nerve. The resulting CAP was amplified from the recording electrode using a high impedance low-noise amplifier (EG&G Princeton Applied Research Corporation) sampled at 100 kHz and filtered at 10 kHz. To assess […]
concentrations to the recording chamber after the CAP was allowed to stabilize for 5 min while […]
pulsing repeatedly. After each measurement, the chamber was washed for 5 min (flow 1 […]
mL/min) with oxygenated aCSF. […]
conduction and the temperature was monitored throughout the experiment. CAP recordings were acquired with a SBC6711 board (Innovative Integration) controlled by in-house written software. Analysis of the traces was done using an in-house software. The half-maximal […]
amplitude vs. concentration and fitted to the Hill equation using Origin. […]
Compound action potential of nerve recorded by suction electrode: a theoretical and experimental analysis. […]

in vitro = settings: mouse, microsomes
[4] = relative K^+ current at +20 mV, Hill equation fit, read-out: Half-maximal inhibitory concentration (IC50)

non-inactivating Shaker channel from D. melanogaster, sequence (P08510 other isoform, or with tags, fused parts or gaps DEL6-46): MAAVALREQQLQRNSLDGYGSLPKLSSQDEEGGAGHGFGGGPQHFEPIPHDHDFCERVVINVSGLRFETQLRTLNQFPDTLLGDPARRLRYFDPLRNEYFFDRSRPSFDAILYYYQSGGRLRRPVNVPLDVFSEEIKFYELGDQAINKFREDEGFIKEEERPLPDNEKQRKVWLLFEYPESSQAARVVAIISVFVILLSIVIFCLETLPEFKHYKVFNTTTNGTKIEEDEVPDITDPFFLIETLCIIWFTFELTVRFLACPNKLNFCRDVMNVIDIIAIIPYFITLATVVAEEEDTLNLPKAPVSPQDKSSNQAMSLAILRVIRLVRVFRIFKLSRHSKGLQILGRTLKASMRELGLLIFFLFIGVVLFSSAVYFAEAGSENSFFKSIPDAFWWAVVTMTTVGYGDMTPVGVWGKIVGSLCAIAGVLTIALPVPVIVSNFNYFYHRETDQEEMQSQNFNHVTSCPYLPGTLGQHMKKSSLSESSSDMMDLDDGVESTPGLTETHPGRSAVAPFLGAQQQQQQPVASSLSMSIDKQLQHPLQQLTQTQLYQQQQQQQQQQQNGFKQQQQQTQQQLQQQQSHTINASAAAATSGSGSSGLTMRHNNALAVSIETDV

## O=[14CH]C[C@@H](O)[C@H](O)[C@H](O)CO [2-DG, [1-^14C]2-deoxy-D-glucose, reference compound]
[1]; mouse, in vivo
  difference in brain distribution between wild type and Shiverer mice: no differences were seen

## Nc1ccnc(F)c1 [2-F-4-AP, 2-fluoro-4-aminopyridine]
[2]; [4]
  IC50: > 10 mM
C57Bl/6 J mice
  signs of neuroexcitation, summary in words relative to 4-AP: did not cause any effects at doses up to 20 times greater
[3]
  activity in enhancing the CAP: inactive

## Nc1ccncc1CCF [3-FEt-4-AP, 3-fluoroethyl-4-aminopyridine]
[2]
  IC50: > 10 mM
[3]
  activity in enhancing the CAP: inactive

## Nc1ccncc1CF [3-FMe-4-AP, 3-fluoromethyl-4-aminopyridine]
[2]; [4]
  IC50: 7.45 mM
C57Bl/6 J mice
  signs of neuroexcitation, summary in words relative to 4-AP: half as potent as 4-AP
[3]
  IC50: 0.386 mM
  times less potent: 4–6 times

## Nc1ccncc1CO [3-HOMe-4-AP, 3-hydroxymethyl-4-aminopyridine, reference compound]
[2]
  IC50: 4.38 mM
C57Bl/6 J mice
  signs of neuroexcitation, summary in words relative to 4-AP: did not cause any effects at doses up to 20 times greater
[3]
  IC50: 0.386 mM
  times less potent: 4–6 times

## CC(C)NCC(O)COc1cccc2ccccc12 (centres unmarked) [Propranolol, propranolol]
In vitro
  half-life: 25.6 ± 2.1 min

## Nc1c[14cH]n[14cH]c1F [[^14C]3-F-4-AP, [2,6-^14C]4-amino-3-fluoropyridine]
[1]; Shiverer (Mbp^shi/shi) mice, normalized to cortex
  relative autoradiographic signal intensity in corpus callosum: 0.878 ± 0.043
[1]; corpus callosum
  increase in signal, Shiverer versus control white matter: 29%
[1]; wild-type/control mice, normalized to cortex (gray matter = 1.0)
  relative autoradiographic signal intensity in myelinated white matter: 0.679 ± 0.046

## Nc1c[14cH]n[14cH]c1 [[^14C]4-AP, [2,6-^14C]4-aminopyridine, reference compound]
[1]; LPC-injected mice, 3 days after injection, normalized to cortex
  autoradiographic signal in the demyelinated area: 0.733 ± 0.047
[1]; LPC-injected mice, opposite hemisphere, normalized to cortex
  autoradiographic signal in the contralateral control area: 0.507 ± 0.070
